Assay results: patent US11234971B2, “Methods of treating cancer comprising administration of a glucocorticoid receptor modulator and a cancer chemotherapy agent” (Corcept Therapeutics Incorporated, priority 2018, dated 2022)

Columns and labels:
[1] = target: T1, glucocorticoid receptor (Homo sapiens, UniProt P04150); conditions: cited from earlier work
T1 sequence (P04150 1-777): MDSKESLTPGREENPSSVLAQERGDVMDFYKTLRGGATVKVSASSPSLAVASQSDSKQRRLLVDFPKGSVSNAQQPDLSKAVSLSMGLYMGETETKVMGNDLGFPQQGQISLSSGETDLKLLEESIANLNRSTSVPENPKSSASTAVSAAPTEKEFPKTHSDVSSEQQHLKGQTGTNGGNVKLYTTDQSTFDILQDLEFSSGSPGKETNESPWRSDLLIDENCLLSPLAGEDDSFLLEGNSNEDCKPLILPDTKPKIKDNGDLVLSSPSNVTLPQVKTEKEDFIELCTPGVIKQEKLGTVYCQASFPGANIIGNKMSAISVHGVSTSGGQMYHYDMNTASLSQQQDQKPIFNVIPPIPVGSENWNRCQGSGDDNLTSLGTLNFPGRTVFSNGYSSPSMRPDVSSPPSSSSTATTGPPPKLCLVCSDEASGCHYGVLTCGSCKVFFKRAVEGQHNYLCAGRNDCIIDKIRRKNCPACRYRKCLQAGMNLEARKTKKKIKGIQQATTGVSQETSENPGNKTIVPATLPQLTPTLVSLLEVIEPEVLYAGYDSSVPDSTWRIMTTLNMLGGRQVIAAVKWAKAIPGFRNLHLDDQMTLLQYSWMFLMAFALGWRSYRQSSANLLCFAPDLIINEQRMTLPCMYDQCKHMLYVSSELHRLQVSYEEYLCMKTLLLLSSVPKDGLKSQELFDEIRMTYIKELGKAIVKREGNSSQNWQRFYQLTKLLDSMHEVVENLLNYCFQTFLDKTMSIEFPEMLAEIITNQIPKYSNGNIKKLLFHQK

[2] = tested on: advanced or metastatic solid tumors; experiment: Tumor assessments per RECIST 1.1 in study NCT02762981; type: in vivo, human; conditions: of 21 patients with paired samples; relacorilant plus nab-paclitaxel
Protocol: In the following, reference is made to RECIST and RECIST 1.1, which refer to the Response Evaluation Criteria for Solid Tumors. These criteria, first promulgated in 2000, and updated in 2009 (as RECIST 1.1.), are generally accepted, and nearly universally used criteria for clinical trials of therapies for solid tumors. See, e.g., Schwartz et al., Eur J Cancer. July; 62: 132-137 (2016). The study described in this Example was performed and evaluated according to these criteria. Detection of the ovarian cancer marker CA-125 was also used, per Gynecologic Cancer Intergroup (GCIG) criteria, in evaluating the patient samples.
Patients Patients with solid tumors were enrolled in study NCT02762981, a phase 1/2 study of CORT125134 (aka relacorilant) in combination with nab-paclitaxel. The patients were all 18 years of age or older, with advanced or metastatic solid tumors who have disease progression; all patients gave informed consent to participate in this study.
Patients received one or more cycles of treatments as describe schematically in FIGS. 1 and 2. The treatment schedules of each 28-day cycle are shown in those figures. Patients in Segment I of the study received continuous dosing of relacorilant (“CORT125134”); that is, relacorilant was administered to the patients on a daily basis. […]

[3] = target: androgen receptor (Homo sapiens, UniProt P10275); conditions: cited from earlier work
Sequence of androgen receptor (P10275 whole entry, species assumed): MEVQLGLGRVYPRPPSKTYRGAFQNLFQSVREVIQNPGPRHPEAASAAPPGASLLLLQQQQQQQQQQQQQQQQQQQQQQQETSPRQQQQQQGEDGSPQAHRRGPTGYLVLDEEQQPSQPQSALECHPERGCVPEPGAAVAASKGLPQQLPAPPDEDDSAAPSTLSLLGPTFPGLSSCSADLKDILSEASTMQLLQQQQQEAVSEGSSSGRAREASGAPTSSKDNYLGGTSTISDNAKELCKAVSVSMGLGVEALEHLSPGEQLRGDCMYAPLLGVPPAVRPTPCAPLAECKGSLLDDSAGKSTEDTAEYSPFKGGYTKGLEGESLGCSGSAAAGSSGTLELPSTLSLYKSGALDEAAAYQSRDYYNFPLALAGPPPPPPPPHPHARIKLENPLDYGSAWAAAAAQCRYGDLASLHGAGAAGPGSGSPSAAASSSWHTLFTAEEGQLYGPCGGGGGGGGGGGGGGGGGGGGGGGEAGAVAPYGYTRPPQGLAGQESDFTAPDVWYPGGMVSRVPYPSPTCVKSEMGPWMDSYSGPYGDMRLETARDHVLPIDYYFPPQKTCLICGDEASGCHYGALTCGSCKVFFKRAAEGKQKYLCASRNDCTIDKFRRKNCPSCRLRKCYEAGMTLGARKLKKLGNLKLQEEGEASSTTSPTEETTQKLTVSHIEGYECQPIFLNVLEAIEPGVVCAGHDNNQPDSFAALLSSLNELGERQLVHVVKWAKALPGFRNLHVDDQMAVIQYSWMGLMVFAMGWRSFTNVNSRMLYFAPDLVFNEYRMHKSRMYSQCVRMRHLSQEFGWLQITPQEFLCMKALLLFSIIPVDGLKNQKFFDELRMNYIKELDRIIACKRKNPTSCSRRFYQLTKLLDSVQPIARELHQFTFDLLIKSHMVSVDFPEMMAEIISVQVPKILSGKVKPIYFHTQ

With `Cn1cc(S(=O)(=O)N2CCC3=Cc4c(cnn4-c4ccc(F)cc4)C[C@]3(C(=O)c3cc(C(F)(F)F)ccn3)C2)cn1` [relacorilant, (R)-(1-(4-fluorophenyl)-6-((1-methyl-1H-pyrazol-4-yl)sulfonyl)-4,4a,5,6,7,8-hexahydro-1H-pyrazolo[3,4-g]isoquinolin-4a-yl)(4-(trifluoromethyl)pyridin-2-yl)methanone] as the compound, how does the “binding to the glucocorticoid receptor” value [1] read?
Its value is “potently binds”.

What about the “patients who experienced benefit from therapy (SD, PR or CR)” value [2] of the same compound?
The value was 11 patients.

What about the “patients who experienced progressive disease” value [2] of the same compound?
Its value is 10 patients.

And the Ki [3]?
The Ki was > 10 µM.
